Columns and labels:
Format in all cases: in vivo
Conditions in all cases: after 13 d
[1] = system: barnyardgrass (Echinochloa crus-galli, ECHCG); assay: Test A pre-emergence, barnyardgrass
How it was run: (§1)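 Damage rated visually at 13 d on a 0–100 scale (100 = plant killed). Pre-emergence spray one day after sowing; doses 15.625, 62.5 or 250 g/ha from an acetone/water 50:50 formulation with 0.5% Tween 20. Glasshouse at 24/16° C., 14 h photoperiod, 65% humidity.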

[2] = system: redroot pigweed (Amaranthus retroflexus, AMARE); assay: Test A pre-emergence, redroot pigweed
How it was run: as §1

[3] = system: velvetleaf (Abutilon theophrasti, ABUTH); assay: Test A pre-emergence, velvetleaf
How it was run: as §1

corn (Zea mays, ZEAMX) = assay: Test A post-emergence, corn
How it was run: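 Foliar application to 8-day-old seedlings at 15.625, 62.5 or 250 g/ha; phytotoxicity scored 0–100 after 13 d.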

Row | Compound | damage to plant (100=total damage; 0=no damage) ECHCG ([1]; Pre-Emergence at 15.625 g/ha) | damage to plant (100=total damage; 0=no damage) ECHCG ([1]; Pre-Emergence at 62.5 g/ha) | damage to plant (100=total damage; 0=no damage) ECHCG ([1]; Pre-Emergence at 250 g/ha) | damage to plant (100=total damage; 0=no damage) AMARE ([2]; Pre-Emergence at 15.625 g/ha) | damage to plant (100=total damage; 0=no damage) AMARE ([2]; Pre-Emergence at 62.5 g/ha) | damage to plant (100=total damage; 0=no damage) AMARE ([2]; Pre-Emergence at 250 g/ha) | damage to plant (100=total damage; 0=no damage) ABUTH ([3]; Pre-Emergence at 15.625 g/ha) | damage to plant (100=total damage; 0=no damage) ABUTH ([3]; Pre-Emergence at 62.5 g/ha) | damage to plant (100=total damage; 0=no damage) ABUTH ([3]; Pre-Emergence at 250 g/ha) | damage to plant (100=total damage; 0=no damage) ZEAMX (corn (Zea mays, ZEAMX); Post-Emergence at 15.625 g/ha) | damage to plant (100=total damage; 0=no damage) ZEAMX (corn (Zea mays, ZEAMX); Post-Emergence at 62.5 g/ha) | damage to plant (100=total damage; 0=no damage) ZEAMX (corn (Zea mays, ZEAMX); Post-Emergence at 250 g/ha)
1 | CN1CC(c2cc(C(F)(F)F)n(C)n2)C(C(=O)Nc2ccccc2F)C1=O (racemic) [Compound 9] | 80 | 90 | 90 | 0 | 0 | 20 | 0 | 0 | 0 | 20 | 0 | 50
2 | CN1CC(c2cnn(C)c2C(F)(F)F)C(C(=O)Nc2cccc(F)c2F)C1=O (racemic) [Compound 25] | 90 | 100 | 100 | 0 | 0 | 0 | 0 | 10 | 40 | 0 | 20 | 30
3 | CN1CC(c2cc(Cl)n(C)n2)C(C(=O)Nc2ccc(F)c(F)c2F)C1=O (racemic) [Compound 31] | 60 | 80 | 80 | 0 | 0 | 0 | 0 | 0 | 0 | 0 | 0 | 0
4 | CCn1nc([C@H]2CN(C)C(=O)[C@@H]2C(=O)Nc2cccc(F)c2F)c2ccc(F)cc21 [Compound 4] | 90 | 90 | 100 | 0 | 20 | 40 | 0 | 0 | 0 | 20 | 50 | 90
